In EPA's ToxRefDB 2:

How the values were obtained:
rat [1] = conditions: Multigenerational reproductive toxicity study; sprague dawley; Oral; Gavage/Intubation; dose end: 17 GD; group: parental; systemic / in life observation / body weight / body weight + systemic / in life observation / food consumption / food consumption + systemic…
rat [2] = conditions: Sub-acute repeat dose toxicity, sprague dawley, Oral, Gavage/Intubation, dose end: 1 month, group: systemic
mouse [3] = conditions: Subchronic oral toxicity in rodents, other, Feed, dose end: 13 week, group: systemic
rat [4] = conditions: Combined chronic toxicity/carcinogenicity, wistar, Oral, Feed, dose end: 104 week, group: systemic
rat [5] = conditions: Subchronic oral toxicity in rodents, wistar, Feed, dose end: 13 week, group: systemic
rat [6] = conditions: Combined chronic toxicity/carcinogenicity, sprague dawley, Oral, Feed, dose end: 25 month, group: systemic
rat [7] = conditions: Prenatal developmental toxicity study, other, Oral, Gavage/Intubation, dose end: 15 GD
mouse [8] = conditions: Carcinogenicity, cd1, Oral, [Not Specified], dose end: 99 week, group: systemic
rat [9] = conditions: Subchronic oral toxicity in rodents, wistar, Feed, dose end: 6 week, group: systemic
rat [10] = conditions: Subchronic oral toxicity in rodents, sprague dawley, Feed, dose end: 13 week, group: systemic
[11] = systemic / clinical chemistry / cholesterol / cholesterol + systemic / organ weight / liver / absolute + systemic / organ weight / liver / …
[12] = systemic / pathology microscopic / liver / arteritis + systemic / pathology microscopic / liver / degeneration
[13] = systemic / clinical chemistry / urea nitrogen / urea nitrogen
[14] = systemic / clinical chemistry / urea nitrogen / urea nitrogen + systemic / clinical chemistry / alanine aminotransferase (alt/sgpt) / …
[15] = systemic / hematology / erythrocyte (rbc) count differential / erythrocyte (rbc) + systemic / hematology / hematocrit (hct) / hematocrit (…
[16] = systemic / in life observation / body weight / body weight gain
[17] = systemic / in life observation / body weight / body weight gain + systemic / clinical chemistry / cholesterol / cholesterol
[18] = systemic / clinical chemistry / alanine aminotransferase (alt/sgpt) / alanine aminotransferase (alt/sgpt) + systemic / clinical chemistry / …
[19] = systemic / pathology microscopic / liver / hypertrophy
[20] = group: developmental, developmental / developmental malformation / eye / anophthalmia + developmental / developmental malformation / eye / microphthalmia
[21] = group: maternal, systemic / in life observation / body weight / body weight gain
[22] = systemic / in life observation / body weight / body weight gain + systemic / in life observation / mortality / mortality + systemic / organ …
[23] = systemic / in life observation / body weight / body weight gain + systemic / clinical chemistry / protein / protein + systemic / clinical …
[24] = systemic / clinical chemistry / albumin / albumin + systemic / clinical chemistry / protein / protein
[25] = systemic / clinical chemistry / cholesterol / cholesterol + systemic / in life observation / body weight / body weight + systemic / in life …

NC(=O)N(O)[C@@H]1COc2cc(OCc3ccccc3)ccc21
LEL (rat [1]): 1000 mg/kg/day
LOAEL (rat [1]): > 1000 mg/kg/day
NEL (rat [1]): 100 mg/kg/day
NOAEL (rat [1]): ≥ 1000 mg/kg/day
LOAEL (rat [2]; [11]): > 1000 mg/kg/day
NOAEL (rat [2]; [11]): ≥ 1000 mg/kg/day
LEL (rat [2]; [12]): 100 mg/kg/day
NEL (rat [2]; [12]): < 100 mg/kg/day

C[N+](C)(C)CCO.O=c1ccc([O-])n[nH]1
LEL (mouse [3]; [13]): 5620 mg/kg/day
LOAEL (mouse [3]; [13]): 5620 mg/kg/day
NEL (mouse [3]; [14]): 1100 mg/kg/day
NOAEL (mouse [3]; [14]): 1100 mg/kg/day
LEL (rat [4]; [15]): 18.1 mg/kg/day
NEL (rat [4]; [15]): < 18.1 mg/kg/day
LOAEL (rat [4]; systemic / in life observation / body weight / body weight + systemic / in life observation / body weight / body weight gain): 1960 mg/kg/day
NOAEL (rat [4]; systemic / in life observation / body weight / body weight + systemic / in life observation / body weight / body weight gain + systemic / …): 183 mg/kg/day
LOAEL (rat [5]; [16]): 4760 mg/kg/day
LEL (rat [5]; [17]): 4760 mg/kg/day
NEL (rat [5]; [17]): 1060 mg/kg/day
NOAEL (rat [5]; [17]): 1060 mg/kg/day

CCCN(CCC)c1c([N+](=O)[O-])cc(C(F)(F)F)c(N)c1[N+](=O)[O-] [Prodiamine]
LOAEL (rat [6]; [18]): 37 mg/kg/day
NOAEL (rat [6]; [18]): 9.1 mg/kg/day
LEL (rat [6]; [19]): 1.8 mg/kg/day
NEL (rat [6]; [19]): < 1.8 mg/kg/day
LEL (rat [7]; [20]): 100 mg/kg/day
LOAEL (rat [7]; [20]): 100 mg/kg/day
NEL (rat [7]; [20]): < 100 mg/kg/day
NOAEL (rat [7]; [20]): < 100 mg/kg/day
LEL (rat [7]; [21]): 1000 mg/kg/day
LOAEL (rat [7]; [21]): 1000 mg/kg/day
NEL (rat [7]; [21]): 300 mg/kg/day
NOAEL (rat [7]; [21]): 300 mg/kg/day
LOAEL (mouse [8]; [22]): 750 mg/kg/day
NEL (mouse [8]; [22]): 7.5 mg/kg/day
NOAEL (mouse [8]; [22]): 75 mg/kg/day
LEL (mouse [8]; systemic / in life observation / body weight / body weight gain + systemic / organ weight / kidney / nos + systemic / in life observation / …): 75 mg/kg/day
LEL (rat [9]; systemic / clinical chemistry / protein / protein): 63 mg/kg/day
LOAEL (rat [9]; [16]): 681 mg/kg/day
NEL (rat [9]; [23]): 16.8 mg/kg/day
NOAEL (rat [9]; [23]): 63 mg/kg/day
LEL (rat [10]; [24]): 26.7 mg/kg/day
NEL (rat [10]; [24]): < 26.7 mg/kg/day
LOAEL (rat [10]; [25]): 269 mg/kg/day
NOAEL (rat [10]; [25]): 80.1 mg/kg/day
